One assay concerns α-adrenergic. Particulars: in the form of its hydrochloride; Eur. J. Med. Chem. 22 (6), 539-544; cited from earlier work.
The target in a further assay is T1, Dopamine D2 receptor (Rattus norvegicus, UniProt P61169).
T1 construct: membranes from the striatum of the rat; from tissue; host or cells: rat striatum membranes
The assay can be described thus: Dopamine D2 receptor test (3H-sulpiride bonding, rat striatum membranes). It is filed as binding. The note with it: Ki calculated from IC50 of displacement curves. The procedure:
This test is carried out in accordance with the following literature reference: Imafuku J. (1987), Brain Research 402; 331-338.
The bonding of the selective D2 receptor antagonist ^3 H-sulpiride to membranes from the striatum of the rat is measured here. Compounds which bond to dopamine D2 receptors inhibit the bonding of ^3 H-sulpiride as a function of the concentration. IC50 values are determined from the displacement curves, and the inhibition constants Ki are calculated from these.

Another assay deals with 5-HT1 receptor. The assay can be described thus: Affinity for the 5-HT1 receptor (receptor-bonding, 3H-serotonin, calf hippocampus membranes). It counts as binding. The note with it: calf hippocampus membrane preparations, 3H-serotonin as radioligand. The protocol:
The high affinity of the compounds according to the invention for 5-hydroxytryptamine receptors of the subtype 1 is shown by way of example in Table [A]. The values stated are data which were determined from receptor-bonding studies using calf hippocampus membrane preparations. ^3 H-Serotonin was used as the radioactively labelled ligand for this purpose.

Another assay addresses T2, 5-HT1A receptor (Bos taurus, UniProt F6Q2H9).
T2 construct: 5-HT1A receptors in calf hippocampus membranes; from tissue; host or cells: calf hippocampus membranes
T2 sequence (F6Q2H9 1-422): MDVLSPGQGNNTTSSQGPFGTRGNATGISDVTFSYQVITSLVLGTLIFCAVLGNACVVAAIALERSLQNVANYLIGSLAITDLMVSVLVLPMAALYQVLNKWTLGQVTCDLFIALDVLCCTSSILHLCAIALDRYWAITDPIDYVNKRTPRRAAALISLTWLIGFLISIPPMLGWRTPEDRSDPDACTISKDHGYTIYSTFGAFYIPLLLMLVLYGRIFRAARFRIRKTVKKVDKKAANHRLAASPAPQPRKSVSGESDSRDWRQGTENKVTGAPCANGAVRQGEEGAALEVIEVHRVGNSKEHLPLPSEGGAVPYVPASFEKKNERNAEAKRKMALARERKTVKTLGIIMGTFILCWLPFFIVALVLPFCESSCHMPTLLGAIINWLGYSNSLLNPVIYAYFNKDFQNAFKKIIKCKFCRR
The experiment in a line: Affinity for the 5-HT1A receptor (3H-ipsapirone bonding, calf hippocampus membranes). It counts as binding. The protocol:
[W. U. Dompert et al., Naunyn-Schmiedeberg's Arch. Pharmacol. (1985), 328, 467-470].
The bonding of ^3 H-ipsapirone to 5-HT1A receptors in calf hippocampus membranes is measured in this test.

Structures can show the parent of a compound that is named as a salt.

The values below come from patent US5326771A, “Piperidylmethyl-substituted chroman derivatives” (Bayer Aktiengesellschaft, priority 1991, dated 1994).

T1 sequence (P61169 whole entry): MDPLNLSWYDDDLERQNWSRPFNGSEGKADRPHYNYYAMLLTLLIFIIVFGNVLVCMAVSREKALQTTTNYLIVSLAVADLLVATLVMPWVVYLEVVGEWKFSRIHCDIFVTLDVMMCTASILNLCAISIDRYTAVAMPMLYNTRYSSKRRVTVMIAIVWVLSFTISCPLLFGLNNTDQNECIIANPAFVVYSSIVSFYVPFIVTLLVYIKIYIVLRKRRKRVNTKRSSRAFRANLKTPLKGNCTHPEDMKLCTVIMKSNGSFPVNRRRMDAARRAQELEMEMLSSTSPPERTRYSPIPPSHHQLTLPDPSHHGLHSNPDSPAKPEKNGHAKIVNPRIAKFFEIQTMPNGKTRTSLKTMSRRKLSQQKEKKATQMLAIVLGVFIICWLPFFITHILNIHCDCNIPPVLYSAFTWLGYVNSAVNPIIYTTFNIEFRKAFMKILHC

Regarding `c1ccc2c(c1)CCC(CN1CCCCC1)O2` (centres unmarked) [1-[(3,4-dihydro-2H-1-benzopyran-2-yl)methyl]piperidine], the α-adrenergic blocking action entry with α-adrenergic is “having an α-adrenergic blocking action”.
In general, Ki refers to the equilibrium dissociation constant of an inhibitor or competing ligand from its target. As to `OC1(c2cccc(C(F)(F)F)c2)CCN(CC2CCc3ccccc3O2)CC1` (centres unmarked) [Example 10], at Dopamine D2 receptor, the Ki is 2.3 nM.
As for `COc1cccc2c1OC(CN1CCC(O)(c3ccc(Cl)cc3)CC1)CC2` (centres unmarked) [Example 1, 2-[4-(4-Chlorophenyl)-4-hydroxy-piperidin-1-yl]methyl-8-methoxy-chroman hydrochloride], the Ki on 5-HT1 receptor came out at 22 nM.
Regarding `OC1(c2ccc(Cl)cc2)CCN(CC2CCc3ccccc3O2)CC1` (centres unmarked) [Example 4], the Ki is 2.5 nM on Dopamine D2 receptor and 76 nM at 5-HT1 receptor.
In the case of `COc1cccc2c1OC(CN1CCC(c3ccccc3)(c3ccccc3)CC1)CC2` (centres unmarked) [Example 5], on 5-HT1A receptor, the affinity, expressed as Ki, was 9.9 nM.
In the case of `OC1(c2ccc(Cl)c(C(F)(F)F)c2)CCN(CC2CCc3ccccc3O2)CC1` (centres unmarked) [Example 8], the Ki at Dopamine D2 receptor was 0.9 nM.
The molecule `COc1cccc2c1OC(CN1CCC(O)(c3cccc(C(F)(F)F)c3)CC1)CC2` (centres unmarked) [Example 9] showed a Ki on 5-HT1A receptor of 6 nM.
